Assay results: US20130165475A1, “DEUTERIUM-ENRICHED HETEROCYCLIC COMPOUNDS AS KINASE INHIBITORS” (ASCEPION PHARMACEUTICALS, INC., priority 2010, published 2013)
Counter-ions that a name gives are not always drawn.

Key:
PDGFRβ = target: T1, PDGFRβ (Homo sapiens, UniProt P09619); test: PDGFRβ cell-based assay (ELISA, phosphor-/total PDGFRβ in transfected CHO cells); conditions: compound at 100 nM; CHO cells transfected with full length PDGFRβ; FBS stimulation; read-out: % PDGFRβ kinase activity remains
T1 construct: expressed in transfected cells; host or cells: CHO cells
T1 sequence (P09619 33-1106): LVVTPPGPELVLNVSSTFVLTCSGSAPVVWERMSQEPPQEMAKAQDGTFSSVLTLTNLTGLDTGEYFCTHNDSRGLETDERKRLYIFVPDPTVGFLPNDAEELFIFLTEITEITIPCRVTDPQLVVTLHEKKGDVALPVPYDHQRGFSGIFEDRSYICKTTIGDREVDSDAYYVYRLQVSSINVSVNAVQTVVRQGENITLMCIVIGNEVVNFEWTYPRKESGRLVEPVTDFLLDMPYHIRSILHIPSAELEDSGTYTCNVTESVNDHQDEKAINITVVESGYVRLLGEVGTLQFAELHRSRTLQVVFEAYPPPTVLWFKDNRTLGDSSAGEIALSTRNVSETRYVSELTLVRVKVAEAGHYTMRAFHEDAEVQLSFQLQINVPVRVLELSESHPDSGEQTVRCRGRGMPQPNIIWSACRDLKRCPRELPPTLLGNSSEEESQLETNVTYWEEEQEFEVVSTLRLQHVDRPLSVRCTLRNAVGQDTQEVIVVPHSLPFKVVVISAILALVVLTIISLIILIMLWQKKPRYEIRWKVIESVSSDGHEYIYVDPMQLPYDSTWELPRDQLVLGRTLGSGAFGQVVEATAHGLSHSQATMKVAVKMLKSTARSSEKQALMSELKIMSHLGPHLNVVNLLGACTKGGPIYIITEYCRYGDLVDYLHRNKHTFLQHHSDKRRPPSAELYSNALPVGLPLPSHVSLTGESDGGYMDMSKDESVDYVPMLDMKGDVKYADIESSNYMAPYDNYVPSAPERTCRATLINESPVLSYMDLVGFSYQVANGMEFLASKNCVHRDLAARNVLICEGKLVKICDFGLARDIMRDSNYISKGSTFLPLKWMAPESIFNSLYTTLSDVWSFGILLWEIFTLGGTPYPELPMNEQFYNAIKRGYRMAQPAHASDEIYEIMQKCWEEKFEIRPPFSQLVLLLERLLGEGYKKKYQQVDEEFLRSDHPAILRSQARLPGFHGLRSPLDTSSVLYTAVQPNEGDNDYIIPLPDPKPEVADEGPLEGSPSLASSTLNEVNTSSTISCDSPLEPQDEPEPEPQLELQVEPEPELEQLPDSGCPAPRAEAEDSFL
Excerpt: A standard cell-based assay for PDGFRβ kinase activity can be used to test or screen the compounds of this invention and to identify PDGFRβ antagonists. In this example, ELISA kits (R&D Systems, Inc., Minneapolis, Minn. 55413, USA) were used.
(§1) The activity of PDGFRβ in cells depended on its autophosphorylation level by various factors including growth factors. In order to induce the cell to produce PDGFRβ, full length of PDGFRβ sequence was cloned into PC-DNA3.1 vector, the plasmid was then transfected into CHO cells. After 48 hours, the expression of PDGFRβ in transfected CHO cells was confirmed by regular western blotting.
A compound to be tested was first dissolved in DMSO to a concentration of 10 mM and stored at −20° C. One day before the screening, CHO cells transfected with full length PDGFRβ plasmid were grown in DMEM medium without the presence of serum. On the day of screening procedure, the compounds with various concentration in DMSO (from 0.5 nM to 500 nM) were added into DMEM medium, two hours later, 20% of FBS (Fetal Bovine Serum) was added into the medium to stimulate the production of phosphor-PDGFRβ. Cell lysate from approximately 5×10^5 transfected CHO cells were reacted with anti-phosphor PDGFRβ or anti-total PDGFRβ antibody in 96 well plates, in the presence of detection antibody. The phosphor-PDGFRβ or total PDGFRβ were detected with Streptavidin-HRP (R&D Systems), followed by chemiluminescent detection. The level of PDGFRβ kinase activity was quantified as the ratio between the amount of phosphor- and that of total PDGFRβ proteins.

c-Met = target: T2, c-Met (Homo sapiens, UniProt P08581); test: c-Met cell-based assay (ELISA, phosphor-/total c-Met in transfected CHO cells, HGF stimulated); conditions: compound at 100 nM; CHO cells transfected with full length c-Met; HGF 100 ng/mL
T2 construct: expressed in transfected cells; host or cells: CHO cells
T2 sequence (P08581 25-1390): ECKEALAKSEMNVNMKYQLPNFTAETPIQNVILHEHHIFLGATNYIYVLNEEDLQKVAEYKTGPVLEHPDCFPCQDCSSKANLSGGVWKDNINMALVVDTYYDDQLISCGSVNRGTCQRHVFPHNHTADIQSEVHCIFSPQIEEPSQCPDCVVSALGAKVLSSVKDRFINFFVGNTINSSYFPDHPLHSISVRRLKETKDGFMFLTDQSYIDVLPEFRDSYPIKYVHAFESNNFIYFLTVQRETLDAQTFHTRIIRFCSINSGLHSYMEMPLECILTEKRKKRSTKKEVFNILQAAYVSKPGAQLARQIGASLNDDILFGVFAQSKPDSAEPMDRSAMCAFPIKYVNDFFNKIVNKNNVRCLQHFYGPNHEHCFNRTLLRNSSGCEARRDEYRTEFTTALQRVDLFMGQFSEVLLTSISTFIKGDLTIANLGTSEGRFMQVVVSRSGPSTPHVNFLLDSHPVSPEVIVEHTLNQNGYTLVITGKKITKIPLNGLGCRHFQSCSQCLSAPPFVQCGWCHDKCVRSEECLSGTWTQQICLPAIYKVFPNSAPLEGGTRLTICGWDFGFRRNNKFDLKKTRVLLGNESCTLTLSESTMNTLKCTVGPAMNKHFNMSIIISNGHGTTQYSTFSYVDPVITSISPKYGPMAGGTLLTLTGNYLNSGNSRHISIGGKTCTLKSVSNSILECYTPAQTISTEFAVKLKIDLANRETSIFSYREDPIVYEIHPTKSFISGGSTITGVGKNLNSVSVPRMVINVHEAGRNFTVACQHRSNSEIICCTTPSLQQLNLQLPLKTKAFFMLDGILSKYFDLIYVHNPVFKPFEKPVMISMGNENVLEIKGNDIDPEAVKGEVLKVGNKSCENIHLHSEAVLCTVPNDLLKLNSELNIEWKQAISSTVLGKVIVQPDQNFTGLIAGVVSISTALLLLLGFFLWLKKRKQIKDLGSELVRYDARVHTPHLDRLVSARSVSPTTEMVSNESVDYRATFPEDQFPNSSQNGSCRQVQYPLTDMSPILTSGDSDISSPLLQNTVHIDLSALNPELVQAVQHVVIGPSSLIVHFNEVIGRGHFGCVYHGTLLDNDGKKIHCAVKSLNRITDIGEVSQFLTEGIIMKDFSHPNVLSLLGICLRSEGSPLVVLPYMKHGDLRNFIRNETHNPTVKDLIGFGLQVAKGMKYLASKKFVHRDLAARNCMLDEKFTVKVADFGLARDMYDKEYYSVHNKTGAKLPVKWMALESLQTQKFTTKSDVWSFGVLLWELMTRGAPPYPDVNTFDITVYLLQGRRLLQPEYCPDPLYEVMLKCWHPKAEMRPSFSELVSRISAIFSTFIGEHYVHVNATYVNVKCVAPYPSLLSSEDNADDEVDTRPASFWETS
Excerpt: A standard cell-based assay for c-Met kinase activity can be used to test or screen the compounds of this invention and to identify c-Met antagonists. In this example, ELISA kits (R&D Systems, Inc., Minneapolis, Minn. 55413, USA) were used.
as §1, with “c-Met” for “PDGFRβ”, “it specific” for “various factors including”, “factor-Hepatocyte growth factor (HGF).” for “factors.”, “c-Met,” for “PDGFRβ,”
A compound to be tested was first dissolved in DMSO to a concentration of 10 mM and stored at −20° C. One day before the screening, CHO cells transfected with full length c-Met plasmid were grown in DMEM medium without the presence of serum. On the day of screening procedure, the compounds with various concentration in DMSO (from 0.5 nM to 500 nM) were added into DMEM medium, two hours later, Hepatocyte growth factor (HGF) was added into the medium at the concentration of 100 ng/mL to stimulate the production of phosphor-c-Met. Cell lysate from approximately 5×10^5 transfected CHO cells were reacted with anti-phosphor c-Met or anti-total c-Met antibody in 96 well plates, in the presence of detection antibody. The phosphor-c-Met or total c-Met were detected with Streptavidin-HRP (R&D Systems), followed by chemiluminescent detection. The level of c-Met kinase activity was quantified as the ratio between the amount of phosphor- and that of total c-Met proteins.

Mouse liver microsome = test: Liver microsomal stability assay, mouse; type: in vitro ADME; parameters: key: A: the percentage of a compound remains is greater than that of its deuterium non-enriched counterpart; B: a result otherwise; conditions: 40 μM, 37° C., 30 min, 1 mg/ml microsome proteins; class relative to deuterium non-enriched counterpart
Method: (§2) A standard liver microsomal stability assay can be used to test or screen the compounds of this invention and to identify compounds with enhanced metabolic stability due to the enrichment of deuterium in the compounds. Liver microsome proteins prepared from different species such as mouse and rat were obtained from a commercial source (Research Institute for Liver Diseases, Shanghai, China). The assay was conducted in 1.5% potassium hydrogenphosphate (K2HPO4) in the presence of liver microsome proteins at 1 mg/ml and supplemented with an […] (3.3 mM NADPH, 3.3 mM glucose-6-phosphate, 6 units/ml G6PDase, and 3.3 mM magnesium chloride). Test compound was added into the assay mixture to a final concentration of 40 μM and incubated at 37° C. for 0 or 30 minutes. The reaction was stopped by the addition of 20 μM Bifonazole/CAN. Samples were then centrifuged at 14000 rpm for 10 minutes to precipitate proteins. Supernatant were then transferred to microcentrifuge tubes and subject to reverse phase HPLC analysis to determine the concentration of test compound.
(§3) The percentage of compounds that remained in the assay reactions after a thirty-minute incubation at 37° C. is calculated as the ratio between the amount of compound remained after a thirty-minute and that after a zero-minute incubation.

Rat liver microsome = test: Liver microsomal stability assay, rat; type: in vitro ADME; parameters: key: A: the percentage of a compound remains is greater than that of its deuterium non-enriched counterpart; B: a result otherwise; conditions: 40 μM, 37° C., 30 min, 1 mg/ml microsome proteins; class relative to deuterium non-enriched counterpart
Method: as §2, §3

Row | Compound | remaining activity at 0.1 µM (PDGFRβ) [%] | % C-Met kinase activity remains (c-Met) | % of compound remained at the 30th minutes, Mouse liver microsome (Mouse liver microsome) | % of compound remained at the 30th minutes, Rat liver microsome (Rat liver microsome)
1 | [2H]C(c1c[nH]c2ncccc12)n1ccc2c(NC(=O)Nc3cc(Cl)ccc3OC([2H])([2H])[2H])cccc21 (stereo not shown) [Example 16, 1-[5-chloro-2-(trideuteriomethoxy)phenyl]-3-[1-[deuterio(1H-pyrrolo[2,3-b]pyridin-3-yl)methyl]indol-4-yl]urea] | ≥ 70 | A (the percentage of kinase activity remains is below 70%) | A | A
2 | [2H]C([2H])([2H])Oc1ccc(Cl)cc1NC(=O)Nc1cccc2c1CCN2C([2H])([2H])c1ccnc(N)c1 [Example 3, 1-[1-[(2-Amino-4-pyridyl)-dideuteriomethyl]indolin-4-yl]-3-[5-chloro-2-(trideuteriomethoxy)phenyl]urea] | ≥ 70 | A (the percentage of kinase activity remains is below 70%) | B | A
3 | Cl.[2H]C([2H])([2H])Oc1ccc(Cl)cc1NC(=O)Nc1cccc2c1CCN2C([2H])([2H])c1ccnc2[nH]ccc12 [Example 7, 1-[5-Chloro-2-(trideuteriomethoxy)phenyl]-3-[1-[dideuterio(1H-pyrrolo[2,3-b]pyridin-4-yl)methyl]indolin-4-yl]urea hydrochloride] | < 70 | A (the percentage of kinase activity remains is below 70%) | A | A
4 | [2H]C([2H])([2H])Oc1ccc(Cl)cc1NC(=O)Nc1cccc2c1ccn2C([2H])([2H])c1ccnc(N)c1 [Example 4, 1-[1-[(2-amino-4-pyridyl)-dideuteriomethyl]indol-4-yl]-3-[5-chloro-2-(trideuteriomethoxy)phenyl]urea] | ≥ 70 | A (the percentage of kinase activity remains is below 70%) | B | A
5 | [2H]C(c1c[nH]c2ncccc12)n1ccc2c(NC(=O)Nc3cc(Cl)ccc3F)cccc21 (stereo not shown) [Example 20, 1-(5-chloro-2-fluorophenyl)-3-[1-[deuterio(1H-pyrrolo[2,3-b]pyridin-3-yl)methyl]indol-4-yl]urea] | < 70 | A (the percentage of kinase activity remains is below 70%) | B | A
6 | [2H]C([2H])([2H])Oc1ccc(Cl)cc1NC(=O)Nc1cccc2c1CCN2Cc1ccnc(N)c1 [Example 5, 1-[1-[(2-Amino-4-pyridyl)methyl]indolin-4-yl]-3-[5-chloro-2-(trideuteriomethoxy)phenyl]urea] | < 70 | A (the percentage of kinase activity remains is below 70%) | B | A
7 | [2H]C(c1c[nH]c2ncccc12)N1CCc2c(NC(=O)Nc3cc(Cl)ccc3OC)cccc21 (stereo not shown) [Example 17, 1-(5-Chloro-2-methoxyphenyl)-3-[1-[deuterio(1H-pyrrolo[2,3-b]pyridin-3-yl)methyl]indolin-4-yl]urea] | < 70 | A (the percentage of kinase activity remains is below 70%) | A | A
8 | [2H]C([2H])(c1ccnc2[nH]ccc12)n1ccc2c(NC(=O)Nc3cc(Cl)ccc3F)cccc21 [Example 12, 1-(5-chloro-2-fluorophenyl)-3-[1-[dideuterio(1H-pyrrolo[2,3-b]pyridin-4-yl)methyl]indol-4-yl]urea hydrochloride] | ≥ 70 | A (the percentage of kinase activity remains is below 70%) | B | A
9 | [2H]C(c1c[nH]c2ncccc12)n1ccc2c(NC(=O)Nc3cc(Cl)ccc3OC)cccc21 (stereo not shown) [Example 18, 1-(5-chloro-2-methoxyphenyl)-3-[1-[deuterio(1H-pyrrolo[2,3-b]pyridin-3-yl)methyl]indol-4-yl]urea] | < 70 | A (the percentage of kinase activity remains is below 70%) | A | A
10 | [2H]C(c1c[nH]c2ncccc12)N1CCc2c(NC(=O)Nc3cc(Cl)ccc3OC([2H])([2H])[2H])cccc21 (stereo not shown) [Example 15, 1-[5-Chloro-2-(trideuteriomethoxy)phenyl]-3-[1-[deuterio(1H-pyrrolo[2,3-b]pyridin-3-yl)methyl]indolin-4-yl]urea] | ≥ 70 | A (the percentage of kinase activity remains is below 70%) | B | A
11 | [2H]C([2H])(c1ccnc2[nH]ccc12)N1CCc2c(NC(=O)Nc3cc(Cl)ccc3F)cccc21 [Example 11, 1-(5-Chloro-2-fluorophenyl)-3-[1-[dideuterio(1H-pyrrolo[2,3-b]pyridin-4-yl)methyl]indolin-4-yl]urea hydrochloride] | < 70 | A (the percentage of kinase activity remains is below 70%) | B | B
12 | [2H]C([2H])(c1ccnc2[nH]ccc12)n1ccc2c(NC(=O)Nc3cc(Cl)ccc3OC)cccc21 [Example 10, 1-(5-chloro-2-methoxyphenyl)-3-[1-[dideuterio(1H-pyrrolo[2,3-b]pyridin-4-yl)methyl]indol-4-yl]urea hydrochloride] | ≥ 70 | A (the percentage of kinase activity remains is below 70%) | A | B
13 | [2H]C(c1c[nH]c2ncccc12)N1CCc2c(NC(=O)Nc3cc(Cl)ccc3F)cccc21 (stereo not shown) [Example 19, 1-(5-Chloro-2-fluorophenyl)-3-[1-[deuterio(1H-pyrrolo[2,3-b]pyridin-3-yl)methyl]indolin-4-yl]urea] | ≥ 70 | B (the percentage is greater or equal to 70%) | B | B
